Measured values from patent publication US11578061B2, “Inhibitors of LRRK2 kinase” (Halia Therapeutics, Inc., priority 2021, dated 2023).

These compounds were tested against recombinant human LRRK2 (catalytic domain only [amino acids 970-2527], GST-tagged) (Homo sapiens (Human), UniProt Q5S007) (assay: LRRK2 Enzymatic Assay). Settings: LRRKtide substrate, [32P]-ATP.
Assay type: biochemical
Summary of the method: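 Radiometric P81 filter-binding read-out of [32P]-ATP transfer to LRRKtide (20 μM) by 30 nM GST-LRRK2 970-2527, 2 h at room temperature after 20 min compound preincubation (10 μM–0.5 nM, 1% DMSO). IC50 derived from % remaining activity versus DMSO.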

Chain of recombinant human LRRK2 (catalytic domain only [amino acids 970-2527], GST-tagged) (Q5S007 970-2527): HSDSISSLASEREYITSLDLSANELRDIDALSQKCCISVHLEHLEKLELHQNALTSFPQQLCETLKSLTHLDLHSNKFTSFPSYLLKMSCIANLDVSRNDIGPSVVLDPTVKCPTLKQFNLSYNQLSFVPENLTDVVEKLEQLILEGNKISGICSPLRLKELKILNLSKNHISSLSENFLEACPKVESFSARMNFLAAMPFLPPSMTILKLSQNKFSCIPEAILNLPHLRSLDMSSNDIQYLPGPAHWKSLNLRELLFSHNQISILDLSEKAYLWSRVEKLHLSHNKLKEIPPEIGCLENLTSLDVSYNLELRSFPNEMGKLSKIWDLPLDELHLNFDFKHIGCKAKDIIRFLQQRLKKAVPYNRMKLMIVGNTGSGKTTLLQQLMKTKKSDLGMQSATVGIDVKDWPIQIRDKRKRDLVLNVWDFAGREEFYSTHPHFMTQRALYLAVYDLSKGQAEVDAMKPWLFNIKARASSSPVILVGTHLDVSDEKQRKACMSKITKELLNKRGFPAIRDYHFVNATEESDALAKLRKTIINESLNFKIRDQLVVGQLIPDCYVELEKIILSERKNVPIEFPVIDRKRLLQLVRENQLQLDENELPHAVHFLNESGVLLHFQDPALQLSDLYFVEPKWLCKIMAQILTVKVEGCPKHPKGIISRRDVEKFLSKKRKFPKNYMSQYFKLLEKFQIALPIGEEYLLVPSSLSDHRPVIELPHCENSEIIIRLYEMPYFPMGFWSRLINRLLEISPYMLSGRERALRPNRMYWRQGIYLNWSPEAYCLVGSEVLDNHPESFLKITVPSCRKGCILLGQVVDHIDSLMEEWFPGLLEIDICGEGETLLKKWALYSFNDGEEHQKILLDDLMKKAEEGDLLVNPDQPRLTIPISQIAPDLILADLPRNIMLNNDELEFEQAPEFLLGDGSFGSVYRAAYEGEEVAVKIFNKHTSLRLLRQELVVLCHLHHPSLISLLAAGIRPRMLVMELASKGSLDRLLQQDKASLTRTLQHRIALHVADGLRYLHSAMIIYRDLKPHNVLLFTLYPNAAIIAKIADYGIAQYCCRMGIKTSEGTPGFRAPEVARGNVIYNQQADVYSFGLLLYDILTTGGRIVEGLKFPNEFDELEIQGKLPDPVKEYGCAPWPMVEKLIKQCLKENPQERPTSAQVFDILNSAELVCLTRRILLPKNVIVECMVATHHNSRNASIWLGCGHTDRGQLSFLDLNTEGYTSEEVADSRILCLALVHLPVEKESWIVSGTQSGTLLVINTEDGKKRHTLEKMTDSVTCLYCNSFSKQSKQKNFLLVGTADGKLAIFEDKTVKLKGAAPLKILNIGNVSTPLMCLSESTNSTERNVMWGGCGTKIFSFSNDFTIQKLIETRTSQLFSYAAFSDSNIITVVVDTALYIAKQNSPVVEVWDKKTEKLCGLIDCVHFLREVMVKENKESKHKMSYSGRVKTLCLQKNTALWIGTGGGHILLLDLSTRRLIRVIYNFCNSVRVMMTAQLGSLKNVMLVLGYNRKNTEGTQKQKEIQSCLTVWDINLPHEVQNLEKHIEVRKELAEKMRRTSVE

IC50 [nM] | Structure (SMILES)
200 to 400 | O[C@H]1CC[C@H](COc2nc(Nc3cnn(C4COC4)c3)ncc2F)CC1 [Example 227, (1R,4R)-4-(((5-fluoro-2-((1-(oxetan-3-yl)-1H-pyrazol-4-yl)amino)pyrimidin-4-yl)oxy)methyl)cyclohexan-1-ol]
200 to 400 | O[C@H]1CC[C@H](COc2nc(Nc3cnn(C4CCOCC4)c3)ncc2F)CC1 [Example 228, (1R,4R)-4-(((5-fluoro-2-((1-(tetrahydro-2H-pyran-4-yl)-1H-pyrazol-4-yl)amino)pyrimidin-4-yl)oxy)methyl)cyclohexan-1-ol]
50 to 200 | Cc1nn(C)cc1Nc1ncc(F)c(OC[C@H]2CC[C@H](O)CC2)n1 [Example 229, (1R,4R)-4-(((2-((1,3-dimethyl-1H-pyrazol-4-yl)amino)-5-fluoropyrimidin-4-yl)oxy)methyl)cyclohexan-1-ol]
50 to 200 | Cc1nn(C(C)C)cc1Nc1ncc(F)c(OC[C@H]2CC[C@H](O)CC2)n1 [Example 230, (1R,4R)-4-(((5-fluoro-2-((1-isopropyl-3-methyl-1H-pyrazol-4-yl)amino)pyrimidin-4-yl)oxy)methyl)cyclohexan-1-ol]
50 to 200 | Cc1nn(C2CC2)cc1Nc1ncc(F)c(OC[C@H]2CC[C@H](O)CC2)n1 [Example 231, (1R,4R)-4-(((2-((1-cyclopropyl-3-methyl-1H-pyrazol-4-yl)amino)-5-fluoropyrimidin-4-yl)oxy)methyl)cyclohexan-1-ol]
50 to 200 | Cc1nn(C(F)F)cc1Nc1ncc(F)c(OC[C@H]2CC[C@H](O)CC2)n1 [Example 232, (1R,4R)-4-(((2-((1-(difluoromethyl)-3-methyl-1H-pyrazol-4-yl)amino)-5-fluoropyrimidin-4-yl)oxy)methyl)cyclohexan-1-ol]
< 50 | CCc1nn(C)cc1Nc1ncc(F)c(OC[C@H]2CC[C@H](O)CC2)n1 [Example 233, (1R,4R)-4-(((2-((3-ethyl-1-methyl-1H-pyrazol-4-yl)amino)-5-fluoropyrimidin-4-yl)oxy)methyl)cyclohexan-1-ol]
< 50 | Cc1c(Nc2ncc(F)c(OC[C@H]3CC[C@H](O)CC3)n2)cnn1C(C)(C)C#N [Example 234, 2-(4-((5-fluoro-4-(((1R,4R)-4-hydroxycyclohexyl)methoxy)pyrimidin-2-yl)amino)-5-methyl-1H-pyrazol-1-yl)-2-methylpropanenitrile]
50 to 200 | Cc1c(Nc2ncc(F)c(OC[C@H]3CC[C@H](O)CC3)n2)cnn1C(F)F [Example 235, (1R,4R)-4-(((2-((1-(difluoromethyl)-5-methyl-1H-pyrazol-4-yl)amino)-5-fluoropyrimidin-4-yl)oxy)methyl)cyclohexan-1-ol]
< 50 | O[C@H]1CC[C@H](COc2nc(Nc3cnn(C4CCOCC4)c3C3CC3)ncc2F)CC1 [Example 236, (1R,4R)-4-(((2-((5-cyclopropyl-1-(tetrahydro-2H-pyran-4-yl)-1H-pyrazol-4-yl)amino)-5-fluoropyrimidin-4-yl)oxy)methyl)cyclohexan-1-ol]
50 to 200 | Cn1cc(Nc2ncc(F)c(OC[C@H]3CC[C@H](O)CC3)n2)c(Cl)n1 [Example 237, (1R,4R)-4-(((2-((3-chloro-1-methyl-1H-pyrazol-4-yl)amino)-5-fluoropyrimidin-4-yl)oxy)methyl)cyclohexan-1-ol]
200 to 400 | CC(C)n1cc(Nc2ncc(F)c(OC[C@H]3CC[C@H](O)CC3)n2)c(Cl)n1 [Example 238, (1R,4R)-4-(((2-((3-chloro-1-isopropyl-1H-pyrazol-4-yl)amino)-5-fluoropyrimidin-4-yl)oxy)methyl)cyclohexan-1-ol]
200 to 400 | O[C@H]1CC[C@H](COc2nc(Nc3cn(C4CC4)nc3Cl)ncc2F)CC1 [Example 239, (1R,4R)-4-(((2-((3-chloro-1-cyclopropyl-1H-pyrazol-4-yl)amino)-5-fluoropyrimidin-4-yl)oxy)methyl)cyclohexan-1-ol]
50 to 200 | OCCn1ncc(Nc2ncc(F)c(OC[C@H]3CC[C@H](O)CC3)n2)c1Cl [Example 240, (1R,4R)-4-(((2-((5-chloro-1-(2-hydroxyethyl)-1H-pyrazol-4-yl)amino)-5-fluoropyrimidin-4-yl)oxy)methyl)cyclohexan-1-ol]
50 to 200 | COCCn1ncc(Nc2ncc(F)c(OC[C@H]3CC[C@H](O)CC3)n2)c1Cl [Example 241, (1R,4R)-4-(((2-((5-chloro-1-(2-methoxyethyl)-1H-pyrazol-4-yl)amino)-5-fluoropyrimidin-4-yl)oxy)methyl)cyclohexan-1-ol]
< 50 | O[C@H]1CC[C@H](COc2nc(Nc3cnn(C4CCOCC4)c3Cl)ncc2F)CC1 [Example 242, (1R,4R)-4-(((2-((5-chloro-1-(tetrahydro-2H-pyran-4-yl)-1H-pyrazol-4-yl)amino)-5-fluoropyrimidin-4-yl)oxy)methyl)cyclohexan-1-ol]

IC50 [nM] | Structure (SMILES)
200 to 400 | COc1nn(C)cc1Nc1ncc(F)c(OC[C@H]2CC[C@H](O)CC2)n1 [Example 243, (1R,4R)-4-(((5-fluoro-2-((3-methoxy-1-methyl-1H-pyrazol-4-yl)amino)pyrimidin-4-yl)oxy)methyl)cyclohexan-1-ol]
> 400 | COc1nn(C(C)C)cc1Nc1ncc(F)c(OC[C@H]2CC[C@H](O)CC2)n1 [Example 244, (1R,4R)-4-(((5-fluoro-2-((1-isopropyl-3-methoxy-1H-pyrazol-4-yl)amino)pyrimidin-4-yl)oxy)methyl)cyclohexan-1-ol]
200 to 400 | COc1nn(C2CC2)cc1Nc1ncc(F)c(OC[C@H]2CC[C@H](O)CC2)n1 [Example 245, (1R,4R)-4-(((2-((1-cyclopropyl-3-methoxy-1H-pyrazol-4-yl)amino)-5-fluoropyrimidin-4-yl)oxy)methyl)cyclohexan-1-ol]
> 400 | O[C@H]1CC[C@H](COc2nc(Nc3ccc(N4CCOCC4)cc3)nc(Cl)c2F)CC1 [Example 246, (1R,4R)-4-(((6-chloro-5-fluoro-2-((4-morpholinophenyl)amino)pyrimidin-4-yl)oxy)methyl)cyclohexan-1-ol]
> 400 | C[C@@H]1CN(c2ccc(Nc3nc(Cl)c(F)c(OC[C@H]4CC[C@H](O)CC4)n3)cc2)C[C@H](C)O1 [Example 247, (1R,4R)-4-(((6-chloro-2-((4-((2S,6R)-2,6-dimethylmorpholino)phenyl)amino)-5-fluoropyrimidin-4-yl)oxy)methyl)cyclohexan-1-ol]
> 400 | Cc1nn(C(C)(C)C#N)cc1Nc1nc(Cl)c(F)c(OC[C@H]2CC[C@H](O)CC2)n1 [Example 248, 2-(4-((4-chloro-5-fluoro-6-(((1R,4R)-4-hydroxycyclohexyl)methoxy)pyrimidin-2-yl)amino)-3-methyl-1H-pyrazol-1-yl)-2-methylpropanenitrile]
< 50 | C[C@@H]1CN(c2ccc(Nc3ncc(F)c(OC[C@@H]4CCC[C@@H](O)C4)n3)cc2)C[C@H](C)O1 [Example 249, (1R,3R)-3-(((2-((4-((2S,6R)-2,6-dimethylmorpholino)phenyl)amino)-5-fluoropyrimidin-4-yl)oxy)methyl)cyclohexan-1-ol]
< 50 | Cc1nn(C(C)(C)C#N)cc1Nc1ncc(F)c(OC[C@@H]2CCC[C@@H](O)C2)n1 [Example 250, 2-(4-((5-fluoro-4-(((1R,3R)-3-hydroxycyclohexyl)methoxy)pyrimidin-2-yl)amino)-3-methyl-1H-pyrazol-1-yl)-2-methylpropanenitrile]
50 to 200 | CC1(O)CCC(COc2nc(Nc3ccc(N4CCOCC4)cc3)ncc2F)CC1 (stereo not drawn) [Example 251, 4-(((5-fluoro-2-((4-morpholinophenyl)amino)pyrimidin-4-yl)oxy)methyl)-1-methylcyclohexan-1-ol]
< 50 | C[C@@H]1CN(c2ccc(Nc3ncc(F)c(OCC4CCC(C)(O)CC4)n3)cc2)C[C@H](C)O1 (stereo partly drawn) [Example 252, 4-(((2-((4-((2S,6R)-2,6-dimethylmorpholino)phenyl)amino)-5-fluoropyrimidin-4-yl)oxy)methyl)-1-methylcyclohexan-1-ol]
< 50 | Cc1nn(C(C)(C)C#N)cc1Nc1ncc(F)c(OCC2CCC(C)(O)CC2)n1 (stereo not drawn) [Example 253, 2-(4-((5-fluoro-4-((4-hydroxy-4-methylcyclohexyl)methoxy)pyrimidin-2-yl)amino)-3-methyl-1H-pyrazol-1-yl)-2-methylpropanenitrile]
50 to 200 | CC(C)n1cc(Nc2ncc(F)c(OC[C@H]3CC[C@H](C(C)(C)O)CC3)n2)cn1 [Example 255, 2-((1R,4R)-4-(((5-fluoro-2-((1-isopropyl-1H-pyrazol-4-yl)amino)pyrimidin-4-yl)oxy)methyl)cyclohexyl)propan-2-ol]
< 50 | CC(C)n1cc(Nc2ncc(F)c(OCC34CCC(O)(CC3)CC4)n2)cn1 [Example 256, 4-(((5-fluoro-2-((1-isopropyl-1H-pyrazol-4-yl)amino)pyrimidin-4-yl)oxy)methyl)bicyclo[2.2.2]octan-1-ol]
50 to 200 | Cc1nn(C(C)(C)C#N)cc1Nc1ncc(F)c(OCC23CCC(O)(CC2)CC3)n1 [Example 257, 2-(4-((5-fluoro-4-((4-hydroxybicyclo[2.2.2]octan-1-yl)methoxy)pyrimidin-2-yl)amino)-3-methyl-1H-pyrazol-1-yl)-2-methylpropanenitrile]
50 to 200 | O[C@@H]1CC[C@H](COc2nc(Nc3ccc(N4CCOCC4)cc3)ncc2F)C[C@H]1F [Example 258, (1R,2R,4S)-2-fluoro-4-(((5-fluoro-2-((4-morpholinophenyl)amino)pyrimidin-4-yl)oxy)methyl)cyclohexan-1-ol]
< 50 | Cc1nn(C(C)(C)C#N)cc1Nc1ncc(F)c(OC[C@H]2CC[C@@H](O)[C@H](F)C2)n1 [Example 259]

Structure (SMILES) | IC50 [nM]
CC(C)(O)[C@H]1CC[C@H](COc2nc(Nc3ccc(N4C5CCC4COC5)cc3)ncc2F)CC1 [Example 254, 2-((1S,4S)-4-(((2-((4-(3-oxa-8-azabicyclo[3.2.1]octan-8-yl)phenyl)amino)-5-fluoropyrimidin-4-yl)oxy)methyl)cyclohexyl)propan-2-ol] | 50 to 200
